In the NIST ThermoML archive (doi:10.1021/je8003673):
± gives the expanded uncertainty stated by the source.

Settings: Crystal; DTA

- Normal melting temperature: 243.12 ± 0.5 °C
SMILES: Nc1ccc(N)c2c1C(=O)c1ccccc1C2=O [1,4-diaminoanthraquinone]
